Here are results for 9 molecules from the SangsterLogP compilation.

The nature of the data set: method code SF-AS, from DOI: 10.2298/ciceq100329044p. As to conditions: pH 7.4.

The structures appear in SMILES notation.

Consider `Cc1nc2ccccc2n1Cc1ccc(Cl)cc1`, for which the logD (as a rule, the decadic logarithm of the distribution of all forms, ionised or not, between an organic phase and buffer at a given pH) was 4.07.
Then `Cc1nc2ccccc2n1C(=O)c1ccc(Cl)cc1`, with 3.95; and `Cc1nc2ccccc2n1C(=O)c1ccccc1`, with 3.38.
With `Nc1nc2ccccc2n1C(=O)c1ccc(Cl)cc1` the figure was 3.45; with `Cc1nc2ccccc2n1Cc1ccccc1`, 3.51.
With `Cc1ccc(C(=O)n2c(N)nc3ccccc32)cc1` the figure was 3.35; with `Cc1ccc(Cn2c(C)nc3ccccc32)cc1`, 4.01; with `Cc1ccc(C(=O)n2c(C)nc3ccccc32)cc1`, 3.87.
The molecule `Nc1nc2ccccc2n1C(=O)c1ccccc1` displayed a logD of 2.9.
